Measurements from patent publication US8192962B2, “Processes for detecting toxic substances” (Daikin Industries, Ltd., priority 2001, dated 2012).

System: Genes belonging to other category
Experiment: DNA chip mRNA expression in yeast, genes belonging to other category (Table 9)
Assay type: cell-based, Saccharomyces cerevisiae S288C
In short: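 First, S288C yeast grown in YPD at 25° C. are dosed in log phase with one toxicant (growth-inhibiting, not lethal) for 2 h. Next, total RNA is extracted and poly(A) mRNA isolated and reverse-transcribed with Cy3/Cy5-dUTP. Finally, whole-genome chip fluorescence is read relative to unexposed cells.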

S=C([S-])NCCNC(=S)[S-].[Zn+2] [(11), zinc N,N′-ethylenebis(dithiocarbamate)]
The level of expressed mRNA in the presence of chemical substance/The level of expressed mRNA in the absence of chemical substance (yeast gene YDR427W): 1.2
The level of expressed mRNA in the presence of chemical substance/The level of expressed mRNA in the absence of chemical substance (yeast gene YDR432W): 0.6
The level of expressed mRNA in the presence of chemical substance/The level of expressed mRNA in the absence of chemical substance (yeast gene YDR481C): 1.2
The level of expressed mRNA in the presence of chemical substance/The level of expressed mRNA in the absence of chemical substance (yeast gene YDR488C): 0.4
The level of expressed mRNA in the presence of chemical substance/The level of expressed mRNA in the absence of chemical substance (yeast gene YDR510W): 1.6
The level of expressed mRNA in the presence of chemical substance/The level of expressed mRNA in the absence of chemical substance (yeast gene YEL042W): 1.6
The level of expressed mRNA in the presence of chemical substance/The level of expressed mRNA in the absence of chemical substance (yeast gene YEL066W): 1.9
The level of expressed mRNA in the presence of chemical substance/The level of expressed mRNA in the absence of chemical substance (yeast gene YER009W): 1.4
The level of expressed mRNA in the presence of chemical substance/The level of expressed mRNA in the absence of chemical substance (yeast gene YER025W): 1.2
The level of expressed mRNA in the presence of chemical substance/The level of expressed mRNA in the absence of chemical substance (yeast gene YER039C): 1.2
The level of expressed mRNA in the presence of chemical substance/The level of expressed mRNA in the absence of chemical substance (yeast gene YER076C): 0.7
The level of expressed mRNA in the presence of chemical substance/The level of expressed mRNA in the absence of chemical substance (yeast gene YER078C): 1.3
The level of expressed mRNA in the presence of chemical substance/The level of expressed mRNA in the absence of chemical substance (yeast gene YER107C): 0.7
The level of expressed mRNA in the presence of chemical substance/The level of expressed mRNA in the absence of chemical substance (yeast gene YER130C): 0.9
The level of expressed mRNA in the presence of chemical substance/The level of expressed mRNA in the absence of chemical substance (yeast gene YER177W): 1.9
The level of expressed mRNA in the presence of chemical substance/The level of expressed mRNA in the absence of chemical substance (yeast gene YFL022C): 1.2
The level of expressed mRNA in the presence of chemical substance/The level of expressed mRNA in the absence of chemical substance (yeast gene YFL028C): 1.3
The level of expressed mRNA in the presence of chemical substance/The level of expressed mRNA in the absence of chemical substance (yeast gene YFL038C): 1.7
The level of expressed mRNA in the presence of chemical substance/The level of expressed mRNA in the absence of chemical substance (yeast gene YFL043C): 1.1
The level of expressed mRNA in the presence of chemical substance/The level of expressed mRNA in the absence of chemical substance (yeast gene YFR006W): 1.2
The level of expressed mRNA in the presence of chemical substance/The level of expressed mRNA in the absence of chemical substance (yeast gene YFR050C): 1.4
The level of expressed mRNA in the presence of chemical substance/The level of expressed mRNA in the absence of chemical substance (yeast gene YFR051C): 1.3
The level of expressed mRNA in the presence of chemical substance/The level of expressed mRNA in the absence of chemical substance (yeast gene YGL094C): 0.6
The level of expressed mRNA in the presence of chemical substance/The level of expressed mRNA in the absence of chemical substance (yeast gene YGL150C): 0.4
The level of expressed mRNA in the presence of chemical substance/The level of expressed mRNA in the absence of chemical substance (yeast gene YGL158W): 0.2
The level of expressed mRNA in the presence of chemical substance/The level of expressed mRNA in the absence of chemical substance (yeast gene YGL207W): 0.7
The level of expressed mRNA in the presence of chemical substance/The level of expressed mRNA in the absence of chemical substance (yeast gene YGL229C): 1.1
The level of expressed mRNA in the presence of chemical substance/The level of expressed mRNA in the absence of chemical substance (yeast gene YGR136W): 1.3
The level of expressed mRNA in the presence of chemical substance/The level of expressed mRNA in the absence of chemical substance (yeast gene YGR189C): 1.5
The level of expressed mRNA in the presence of chemical substance/The level of expressed mRNA in the absence of chemical substance (yeast gene YGR213C): 1.6
The level of expressed mRNA in the presence of chemical substance/The level of expressed mRNA in the absence of chemical substance (yeast gene YGR232W): 1.3
The level of expressed mRNA in the presence of chemical substance/The level of expressed mRNA in the absence of chemical substance (yeast gene YGR239C): 1.4
The level of expressed mRNA in the presence of chemical substance/The level of expressed mRNA in the absence of chemical substance (yeast gene YGR253C): 2.4
The level of expressed mRNA in the presence of chemical substance/The level of expressed mRNA in the absence of chemical substance (yeast gene YGR257C): 1.2
The level of expressed mRNA in the presence of chemical substance/The level of expressed mRNA in the absence of chemical substance (yeast gene YHR004C): 0.8
The level of expressed mRNA in the presence of chemical substance/The level of expressed mRNA in the absence of chemical substance (yeast gene YHR071W): 1.8
The level of expressed mRNA in the presence of chemical substance/The level of expressed mRNA in the absence of chemical substance (yeast gene YHR139C): 3.5
The level of expressed mRNA in the presence of chemical substance/The level of expressed mRNA in the absence of chemical substance (yeast gene YHR142W): 1.1
The level of expressed mRNA in the presence of chemical substance/The level of expressed mRNA in the absence of chemical substance (yeast gene YHR166C): 0.6
The level of expressed mRNA in the presence of chemical substance/The level of expressed mRNA in the absence of chemical substance (yeast gene YHR185C): 0.7
The level of expressed mRNA in the presence of chemical substance/The level of expressed mRNA in the absence of chemical substance (yeast gene YHR195W): 1.4
The level of expressed mRNA in the presence of chemical substance/The level of expressed mRNA in the absence of chemical substance (yeast gene YHR205W): 0.9
The level of expressed mRNA in the presence of chemical substance/The level of expressed mRNA in the absence of chemical substance (yeast gene YIL018W): 1.2
The level of expressed mRNA in the presence of chemical substance/The level of expressed mRNA in the absence of chemical substance (yeast gene YIL123W): 1.2
The level of expressed mRNA in the presence of chemical substance/The level of expressed mRNA in the absence of chemical substance (yeast gene YIL140W): 0.9
The level of expressed mRNA in the presence of chemical substance/The level of expressed mRNA in the absence of chemical substance (yeast gene YJL073W): 0.5
The level of expressed mRNA in the presence of chemical substance/The level of expressed mRNA in the absence of chemical substance (yeast gene YJL089W): 0.6
The level of expressed mRNA in the presence of chemical substance/The level of expressed mRNA in the absence of chemical substance (yeast gene YJL113W): 1.2
The level of expressed mRNA in the presence of chemical substance/The level of expressed mRNA in the absence of chemical substance (yeast gene YJL116C): 2.9
The level of expressed mRNA in the presence of chemical substance/The level of expressed mRNA in the absence of chemical substance (yeast gene YJL138C): 1.2
